Laboratory results published in patent US11434242B2, “Dopamine-b-hydroxylase inhibitors” (BIAL-PORTELA & Cª, S.A., priority 2017, dated 2022).
Marks after values point to notes of the source that are not given here.

Molecular target: T1, Dopamine beta hydroxylase (Homo sapiens, UniProt P09172)
T1 construct: 125 μl of plasma; tissue Instituto Português do Sangue Transplantação; host or cells: human plasma from healthy donors
T1 sequence (P09172 40-617 limits assumed): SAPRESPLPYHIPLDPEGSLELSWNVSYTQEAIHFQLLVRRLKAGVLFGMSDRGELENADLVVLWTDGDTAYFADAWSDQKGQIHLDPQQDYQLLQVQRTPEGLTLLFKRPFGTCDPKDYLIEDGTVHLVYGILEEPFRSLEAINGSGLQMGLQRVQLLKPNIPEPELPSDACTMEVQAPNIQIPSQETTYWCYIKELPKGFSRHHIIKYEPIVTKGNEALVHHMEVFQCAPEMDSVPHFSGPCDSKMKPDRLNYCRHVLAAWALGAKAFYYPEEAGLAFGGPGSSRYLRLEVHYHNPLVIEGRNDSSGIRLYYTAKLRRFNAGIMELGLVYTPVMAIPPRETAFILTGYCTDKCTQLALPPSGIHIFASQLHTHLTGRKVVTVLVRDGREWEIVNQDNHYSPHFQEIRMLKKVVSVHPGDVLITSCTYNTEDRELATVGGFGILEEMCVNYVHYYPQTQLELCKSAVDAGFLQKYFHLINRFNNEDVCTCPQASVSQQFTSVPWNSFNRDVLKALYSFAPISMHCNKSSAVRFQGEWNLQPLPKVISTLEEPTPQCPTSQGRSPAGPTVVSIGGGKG
Experiment: Dopamine beta hydroxylase activity in human plasma
Format: biochemical
Outline: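 Octopamine production from tyramine over 45 min at 37° C, measured photometrically at 330 nm after SCX extraction and periodate oxidation against an octopamine standard curve, indicates plasma DβH activity. Compounds tested at final 10, 100 and 1000 nM in human plasma, pH 5.0 cofactor buffer, 10 min preincubation; results as % of control.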

Compound | Plasma (0.01 μM), activity in % of control (inhibitor 0.01 μM) | Plasma (0.1 μM), activity in % of control (inhibitor 0.1 μM) | Plasma (1 μM), activity in % of control (inhibitor 1 μM) | Plasma (0.01 μM), activity in % of control, re-test (asterisked) (inhibitor 0.01 μM, re-tested under the same experimental conditions, asterisked data believed to be correct) | Plasma (0.1 μM), activity in % of control, re-test (asterisked) (inhibitor 0.1 μM, re-tested under the same experimental conditions, asterisked data believed to be correct)
Cn1c(CC(=O)N[C@@H]2CCOC2)c2n(c1=S)C[C@@]1(c3cc(Br)ccc3F)C[C@@H]21 [Example 279, 2-((5aS,6aR)-5a-(5-bromo-2-fluorophenyl)-2-methyl-3-thioxo-2,3,5,5a,6,6a-hexahydrocyclopropa[3,4]pyrrolo[1,2-c]imidazol-1-yl)-N—((R)-tetrahydrofuran-3-yl)acetamide] | 61.7 % of control | 15.7 % of control |  |  | 
Cl.Cn1cc(CNCCc2c3n(c(=S)n2C)C[C@@]2(c4cc(Cl)ccc4F)C[C@@H]32)cn1 [Example 346, (5aS,6aR)-5a-(5-chloro-2-fluorophenyl)-2-methyl-1-(2-(((1-methyl-1H-pyrazol-4-yl)methyl)amino)ethyl)-5,5a,6,6a-tetrahydrocyclopropa[3,4]pyrrolo[1,2-c]imidazole-3(2H)-thione Hydrochloride] | 109.6 % of control | 74.9 % of control |  |  | 
CCOC(=O)C(Cc1[nH]c(=S)n2c1C[C@H](c1c(F)c(F)cc(F)c1F)C2)C(=O)OCC [Example 200, (R)-diethyl 2-((6-(2,3,5,6-tetrafluorophenyl)-3-thioxo-3,5,6,7-tetrahydro-2H-pyrrolo[1,2-c]imidazol-1-yl)methyl)malonate] | 85.2 % of control | 66.4 % of control |  |  | 
Cn1c(CC(N)=O)c2n(c1=S)C[C@@]1(c3cc(Br)ccc3F)C[C@@H]21 [Example 280, 2-((5aS,6aR)-5a-(5-bromo-2-fluorophenyl)-2-methyl-3-thioxo-2,3,5,5a,6,6a-hexahydrocyclopropa[3,4]pyrrolo[1,2-c]imidazol-1-yl)acetamide] | 92.8 % of control | 51.4 % of control |  |  | 
Cn1c(CC(=O)N[C@@H]2CCOC2)c2n(c1=S)C[C@@H](c1cc(Cl)ccc1F)C2 [Example 246, 2-((R)-6-(5-chloro-2-fluorophenyl)-2-methyl-3-thioxo-2,5,6,7-tetrahydro-3H-pyrrolo[1,2-c]imidazol-1-yl)-N—((R)-tetrahydrofuran-3-yl)acetamide] | 115.2 % of control | 80.3 % of control |  |  | 
Cl.Cn1c(CCNCc2ccccn2)c2n(c1=S)C[C@@]1(c3cc(Cl)ccc3F)C[C@@H]21 [Example 343, (5aS,6aR)-5a-(5-chloro-2-fluorophenyl)-2-methyl-1-(2-((pyridin-2-ylmethyl)amino)ethyl)-5,5a,6,6a-tetrahydrocyclopropa[3,4]pyrrolo[1,2-c]imidazole-3(2H)-thione Hydrochloride] | 94.9 % of control | 59.5 % of control |  |  | 
Cn1c(CC(=O)NC2COC2)c2n(c1=S)C[C@@]1(c3cc(Br)ccc3F)C[C@@H]21 [Example 437, 2-((5aS,6aR)-5a-(5-bromo-2-fluorophenyl)-2-methyl-3-thioxo-2,3,5,5a,6,6a-hexahydrocyclopropa[3,4]pyrrolo[1,2-c]imidazol-1-yl)-N-(oxetan-3-yl)acetamide] | 62.7 % of control | 6.1 % of control |  |  | 
Cn1c(CC(=O)NCC(F)(F)F)c2n(c1=S)C[C@@]1(c3cc(Cl)ccc3F)C[C@@H]21 [Example 300, 2-((5aS,6aR)-5a-(5-chloro-2-fluorophenyl)-2-methyl-3-thioxo-2,3,5,5a,6,6a-hexahydrocyclopropa[3,4]pyrrolo[1,2-c]imidazol-1-yl)-N-(2,2,2-trifluoroethyl)acetamide] | 57.0 % of control | 10.9 % of control |  |  | 

Results, then the molecule that gave them:

Plasma (0.01 μM), activity in % of control (inhibitor 0.01 μM) | Plasma (0.1 μM), activity in % of control (inhibitor 0.1 μM) | Plasma (1 μM), activity in % of control (inhibitor 1 μM) | Plasma (0.01 μM), activity in % of control, re-test (asterisked) (inhibitor 0.01 μM, re-tested under the same experimental conditions, asterisked data believed to be correct) | Plasma (0.1 μM), activity in % of control, re-test (asterisked) (inhibitor 0.1 μM, re-tested under the same experimental conditions, asterisked data believed to be correct) | Compound
85.0 % of control | 46.0 % of control |  |  |  | O=C(Cc1[nH]c(=S)n2c1C[C@H](c1c(F)ccc(Br)c1F)C2)N[C@H]1CCC[C@@H]1O [Example 161, 2-((R)-6-(3-bromo-2,6-difluorophenyl)-3-thioxo-2,5,6,7-tetrahydro-3H-pyrrolo[1,2-c]imidazol-1-yl)-N-((1S,2S)-2-hydroxycyclopentyl)acetamide]
30.0 % of control | 3.2 % of control |  |  |  | CN(C(=O)Cc1[nH]c(=S)n2c1[C@@H]1C[C@]1(c1c(F)ccc(Cl)c1F)C2)C1CCOCC1 [Example 381, 2-((5aS,6aR)-5a-(3-chloro-2,6-difluorophenyl)-3-thioxo-2,3,5,5a,6,6a-hexahydrocyclopropa[3,4]pyrrolo[1,2-c]imidazol-1-yl)-N-methyl-N-(tetrahydro-2H-pyran-4-yl)acetamide]
52.5 % of control | 3.0 % of control |  |  |  | O=C(Cc1[nH]c(=S)n2c1[C@@H]1C[C@]1(c1c(F)ccc(Cl)c1F)C2)N1CCC(F)(F)CC1 [Example 149, 2-((5aS,6aR)-5a-(3-chloro-2,6-difluorophenyl)-3-thioxo-2,3,5,5a,6,6a-hexahydrocyclopropa[3,4]pyrrolo[1,2-c]imidazol-1-yl)-1-(4,4-difluoropiperidin-1-yl)ethan-1-one]
 | 68.0 % of control | 13.9 % of control |  |  | O=C(O)Cc1[nH]c(=S)n2c1C[C@H](c1c(F)ccc(Br)c1F)C2 [Example 13, (R)-2-(6-(3-bromo-2,6-difluorophenyl)-3-thioxo-2,5,6,7-tetrahydro-3H-pyrrolo[1,2-c]imidazol-1-yl)acetic Acid]
82.2 % of control | 54.8 % of control |  | 46.0* % of control | 6.7* % of control | CN(C(=O)Cc1c2n(c(=S)n1C)C[C@H](c1c(F)ccc(Br)c1F)C2)C1CCOC1 (stereo partly drawn) [Example 252, 2-((S)-6-(3-bromo-2,6-difluorophenyl)-2-methyl-3-thioxo-2,5,6,7-tetrahydro-3H-pyrrolo[1,2-c]imidazol-1-yl)-N-methyl-N-(tetrahydrofuran-3-yl)acetamide]
131.0 % of control | 50.2 % of control |  |  |  | CN(C(=O)Cc1c2n(c(=S)n1C)C[C@@H](c1c(F)ccc(F)c1F)C2)[C@@H]1CCOC1 [Example 455, N-methyl-2-((R)-2-methyl-3-thioxo-6-(2,3,6-trifluorophenyl)-2,5,6,7-tetrahydro-3H-pyrrolo[1,2-c]imidazol-1-yl)-N—((R)-tetrahydrofuran-3-yl)acetamide]
89.8 % of control | 50.5 % of control |  |  |  | CN(CCO)C(=O)Cc1[nH]c(=S)n2c1C[C@H](c1c(F)ccc(Br)c1F)C2 [Example 131, (R)-2-(6-(3-bromo-2,6-difluorophenyl)-3-thioxo-2,5,6,7-tetrahydro-3H-pyrrolo[1,2-c]imidazol-1-yl)-N-(2-hydroxyethyl)-N-methylacetamide]
109.1 % of control | 72.1 % of control |  |  |  | Fc1ccc(Br)c(F)c1[C@H]1Cc2c(CCc3cccnc3)[nH]c(=S)n2C1 [Example 214, (R)-6-(3-bromo-2,6-difluorophenyl)-1-(2-(pyridin-3-yl)ethyl)-2,5,6,7-tetrahydro-3H-pyrrolo[1,2-c]imidazole-3-thione]
9.9 % of control | 0 % of control |  |  |  | O=C(Cc1[nH]c(=S)n2c1C[C@@H](c1c(F)ccc(Cl)c1F)C2)NC1CCS(=O)(=O)CC1 [Example 112, (S)-2-(6-(3-chloro-2,6-difluorophenyl)-3-thioxo-2,5,6,7-tetrahydro-3H-pyrrolo[1,2-c]imidazol-1-yl)-N-(1,1-dioxidotetrahydro-2H-thiopyran-4-yl)acetamide]
65.3 % of control | 12.5 % of control |  |  |  | N#C/N=C(/NCc1[nH]c(=S)n2c1C[C@@H](c1c(F)ccc(Br)c1F)C2)N1CCCC1 [Example 225, (S,Z)—N-((6-(3-bromo-2,6-difluorophenyl)-3-thioxo-2,5,6,7-tetrahydro-3H-pyrrolo[1,2-c]imidazol-1-yl)methyl)-N′-cyanopyrrolidine-1-carboximidamide]
43.2 % of control | 11.8 % of control |  |  |  | O=C(Cc1[nH]c(=S)n2c1C[C@@H](c1c(F)ccc(Cl)c1F)C2)N[C@@H]1CCOC1 [Example 362, 2-((S)-6-(3-chloro-2,6-difluorophenyl)-3-thioxo-2,5,6,7-tetrahydro-3H-pyrrolo[1,2-c]imidazol-1-yl)-N—((R)-tetrahydrofuran-3-yl)acetamide]
